{
  "source": "ChEMBL document CHEMBL5465560",
  "about": "“Selectivity Literature for EUbOPEN Chemogenomic Library” (2024)",
  "key": {"[1]": {"target": "Casein kinase II subunit alpha (Homo sapiens, UniProt P68400)", "details": "at 10 µM"}, "[2]": {"target": "Cyclin-dependent kinase-like 3 (Homo sapiens) (UniProt Q8IVW4)", "sequence (Q8IVW4 whole entry, looked up)": "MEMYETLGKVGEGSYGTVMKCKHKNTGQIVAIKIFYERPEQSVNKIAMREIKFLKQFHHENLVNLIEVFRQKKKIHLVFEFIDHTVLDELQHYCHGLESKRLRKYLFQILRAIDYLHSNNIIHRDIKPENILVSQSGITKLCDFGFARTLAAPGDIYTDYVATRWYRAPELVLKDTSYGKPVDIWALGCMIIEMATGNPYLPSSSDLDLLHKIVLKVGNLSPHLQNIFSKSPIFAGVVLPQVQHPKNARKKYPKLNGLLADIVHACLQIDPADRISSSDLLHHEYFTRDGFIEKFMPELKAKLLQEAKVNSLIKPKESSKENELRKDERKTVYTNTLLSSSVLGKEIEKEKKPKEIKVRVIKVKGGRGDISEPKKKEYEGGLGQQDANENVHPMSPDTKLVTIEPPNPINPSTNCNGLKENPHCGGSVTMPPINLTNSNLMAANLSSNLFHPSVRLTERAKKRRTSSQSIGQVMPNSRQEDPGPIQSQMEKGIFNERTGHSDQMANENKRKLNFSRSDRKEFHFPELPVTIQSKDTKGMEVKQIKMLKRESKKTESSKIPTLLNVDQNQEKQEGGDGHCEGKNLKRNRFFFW", "experiment": "Selectivity interaction (Ambit KINOMEscan and KiNATiv profiling in Jurkat cells) EUB0000090b CDKL3", "type": "cell-based", "details": "at 1 µM"}, "[3]": {"tested_on": "Proto-oncogene tyrosine-protein kinase receptor Ret (Homo sapiens), P07949 [M918T]", "sequence (P07949 whole entry M918T)": "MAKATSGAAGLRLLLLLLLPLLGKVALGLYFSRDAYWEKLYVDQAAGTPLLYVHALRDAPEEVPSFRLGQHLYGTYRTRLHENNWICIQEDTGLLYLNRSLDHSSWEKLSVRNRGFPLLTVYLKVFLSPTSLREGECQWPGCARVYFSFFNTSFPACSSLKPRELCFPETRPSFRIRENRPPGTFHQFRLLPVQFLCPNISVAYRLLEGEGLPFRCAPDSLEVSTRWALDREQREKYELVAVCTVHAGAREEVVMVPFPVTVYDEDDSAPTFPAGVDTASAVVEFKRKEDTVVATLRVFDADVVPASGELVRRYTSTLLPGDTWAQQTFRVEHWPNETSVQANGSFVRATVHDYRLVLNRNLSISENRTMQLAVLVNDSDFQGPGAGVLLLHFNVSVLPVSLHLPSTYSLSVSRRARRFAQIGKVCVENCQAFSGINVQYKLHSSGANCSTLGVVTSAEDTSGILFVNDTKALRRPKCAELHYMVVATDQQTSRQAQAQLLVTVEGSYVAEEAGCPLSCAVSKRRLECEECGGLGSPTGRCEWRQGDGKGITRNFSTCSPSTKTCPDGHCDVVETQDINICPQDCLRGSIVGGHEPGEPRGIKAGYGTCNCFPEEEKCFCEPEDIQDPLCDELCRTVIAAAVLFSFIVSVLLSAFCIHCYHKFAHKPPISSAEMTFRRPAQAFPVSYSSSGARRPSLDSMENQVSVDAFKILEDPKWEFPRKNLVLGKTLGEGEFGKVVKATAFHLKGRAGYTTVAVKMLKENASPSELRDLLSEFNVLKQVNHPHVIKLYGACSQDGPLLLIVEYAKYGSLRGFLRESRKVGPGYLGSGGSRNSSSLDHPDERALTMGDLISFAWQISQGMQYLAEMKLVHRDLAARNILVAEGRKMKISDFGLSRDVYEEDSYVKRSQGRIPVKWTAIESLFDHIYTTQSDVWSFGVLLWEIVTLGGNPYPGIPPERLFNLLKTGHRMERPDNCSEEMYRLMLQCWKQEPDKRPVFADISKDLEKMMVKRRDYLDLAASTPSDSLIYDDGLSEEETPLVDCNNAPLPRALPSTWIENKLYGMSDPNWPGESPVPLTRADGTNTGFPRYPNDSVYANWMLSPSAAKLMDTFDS", "experiment": "(§1) Selectivity interaction (KinomeScan (DiscoverX)) EUB0000655a RET", "details": "at 10 µM"}, "[4]": {"tested_on": "Proto-oncogene tyrosine-protein kinase receptor Ret (Homo sapiens), P07949 [V804L]", "sequence (P07949 whole entry V804L)": "as the sequence (P07949 whole entry M918T) above, with V804L, T918M counted along it", "experiment": "as §1", "details": "at 10 µM"}, "[5]": {"tested_on": "Proto-oncogene tyrosine-protein kinase receptor Ret (Homo sapiens), P07949 [V804M]", "sequence (P07949 whole entry V804M)": "as the sequence (P07949 whole entry M918T) above, with V804M, T918M counted along it", "experiment": "as §1", "details": "at 10 µM"}, "[6]": {"target": "Proto-oncogene tyrosine-protein kinase receptor Ret (Homo sapiens, UniProt P07949)", "sequence (P07949 whole entry)": "as the sequence (P07949 whole entry M918T) above, with T918M counted along it", "experiment": "as §1", "details": "at 10 µM"}, "[7]": {"tested_on": "Receptor-type tyrosine-protein kinase FLT3 (Homo sapiens), P36888 [UNDEFINED MUTATION]", "sequence (P36888 whole entry, looked up, change not shown)": "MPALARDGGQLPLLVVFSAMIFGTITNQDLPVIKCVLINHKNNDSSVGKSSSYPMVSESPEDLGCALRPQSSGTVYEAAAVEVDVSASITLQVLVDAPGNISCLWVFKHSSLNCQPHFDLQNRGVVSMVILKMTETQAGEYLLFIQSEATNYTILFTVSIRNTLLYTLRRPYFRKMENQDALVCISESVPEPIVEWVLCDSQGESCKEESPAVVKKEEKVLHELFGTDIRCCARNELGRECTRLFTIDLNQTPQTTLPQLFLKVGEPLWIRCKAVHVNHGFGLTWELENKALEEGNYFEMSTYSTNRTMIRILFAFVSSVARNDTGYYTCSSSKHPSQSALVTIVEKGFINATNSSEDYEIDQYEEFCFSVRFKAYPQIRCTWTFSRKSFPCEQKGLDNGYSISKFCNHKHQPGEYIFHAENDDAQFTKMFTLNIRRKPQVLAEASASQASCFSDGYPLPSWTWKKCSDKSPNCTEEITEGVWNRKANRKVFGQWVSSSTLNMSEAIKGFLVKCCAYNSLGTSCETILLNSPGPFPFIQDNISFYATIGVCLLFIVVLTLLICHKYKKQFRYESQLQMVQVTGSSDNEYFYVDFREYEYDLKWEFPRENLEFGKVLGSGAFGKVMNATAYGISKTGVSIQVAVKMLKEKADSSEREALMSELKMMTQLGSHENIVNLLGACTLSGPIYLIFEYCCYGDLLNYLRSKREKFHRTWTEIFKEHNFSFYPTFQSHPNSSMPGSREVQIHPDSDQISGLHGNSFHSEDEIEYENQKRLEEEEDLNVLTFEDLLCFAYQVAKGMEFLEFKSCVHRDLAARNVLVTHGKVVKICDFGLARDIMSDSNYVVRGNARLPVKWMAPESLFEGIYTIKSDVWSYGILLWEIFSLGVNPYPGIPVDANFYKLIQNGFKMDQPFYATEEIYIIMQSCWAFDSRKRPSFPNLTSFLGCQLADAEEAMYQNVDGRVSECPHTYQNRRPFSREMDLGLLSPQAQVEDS", "experiment": "Selectivity interaction (KinomeScan (DiscoverX)) EUB0001079a FLT3", "details": "at 1 µM"}, "[8]": {"target": "T1, Activin receptor type-1 (Homo sapiens) (UniProt Q04771)", "T1 sequence (whole entry)": "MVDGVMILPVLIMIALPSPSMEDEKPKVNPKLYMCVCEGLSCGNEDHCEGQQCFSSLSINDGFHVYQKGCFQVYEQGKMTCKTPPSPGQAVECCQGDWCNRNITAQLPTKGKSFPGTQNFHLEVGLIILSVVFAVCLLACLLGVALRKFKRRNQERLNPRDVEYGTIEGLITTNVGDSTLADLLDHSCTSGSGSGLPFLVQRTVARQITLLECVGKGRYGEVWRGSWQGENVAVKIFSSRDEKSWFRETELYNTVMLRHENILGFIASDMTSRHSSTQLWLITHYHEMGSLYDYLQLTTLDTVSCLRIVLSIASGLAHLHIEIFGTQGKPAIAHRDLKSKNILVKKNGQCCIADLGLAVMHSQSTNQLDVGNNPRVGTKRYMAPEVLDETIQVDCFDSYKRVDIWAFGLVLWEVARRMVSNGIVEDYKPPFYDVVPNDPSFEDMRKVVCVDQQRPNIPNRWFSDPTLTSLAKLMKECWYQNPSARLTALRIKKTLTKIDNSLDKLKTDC", "experiment": "Selectivity interaction (KinomeScan (DiscoverX)) EUB0000618a ACVR1", "details": "at 10 µM"}, "[9]": {"target": "Calcium/calmodulin-dependent protein kinase type II subunit delta (Homo sapiens) (UniProt Q13557)", "experiment": "Selectivity interaction (KinomeScan (DiscoverX)) EUB0001619a CAMK2D", "details": "at 1 µM"}, "[10]": {"target": "Protein kinase C delta type (Homo sapiens) (UniProt Q05655)", "sequence (Q05655 whole entry, looked up)": "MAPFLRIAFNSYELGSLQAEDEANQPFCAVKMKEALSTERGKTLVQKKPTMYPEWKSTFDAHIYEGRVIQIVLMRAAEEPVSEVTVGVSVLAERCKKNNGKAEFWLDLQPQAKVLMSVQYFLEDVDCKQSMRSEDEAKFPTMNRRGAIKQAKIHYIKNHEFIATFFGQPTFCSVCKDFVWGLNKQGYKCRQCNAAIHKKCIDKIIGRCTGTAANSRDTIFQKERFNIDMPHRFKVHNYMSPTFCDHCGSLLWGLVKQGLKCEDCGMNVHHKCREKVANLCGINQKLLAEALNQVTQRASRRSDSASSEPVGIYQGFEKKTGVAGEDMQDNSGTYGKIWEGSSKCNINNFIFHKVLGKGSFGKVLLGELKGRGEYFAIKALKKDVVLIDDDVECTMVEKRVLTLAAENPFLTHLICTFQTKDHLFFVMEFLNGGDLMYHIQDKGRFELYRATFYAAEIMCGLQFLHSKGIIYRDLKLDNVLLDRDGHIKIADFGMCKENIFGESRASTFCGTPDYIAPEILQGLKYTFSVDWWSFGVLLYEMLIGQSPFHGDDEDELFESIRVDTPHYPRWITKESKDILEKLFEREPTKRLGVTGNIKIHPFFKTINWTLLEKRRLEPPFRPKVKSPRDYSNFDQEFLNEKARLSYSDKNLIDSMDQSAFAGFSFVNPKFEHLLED", "experiment": "Selectivity interaction (KinomeScan (DiscoverX)) EUB0001619a PRKCD", "details": "at 1 µM"}, "[11]": {"target": "Ribosomal protein S6 kinase alpha-4 (Homo sapiens) (UniProt O75676)", "experiment": "Selectivity interaction (Upstate Kinase Profiler service (Millipore)) EUB0000056c RPS6KA4", "details": "at 1 µM"}, "[12]": {"target": "Mitogen-activated protein kinase kinase kinase kinase 5 (Homo sapiens) (UniProt Q9Y4K4)", "details": "at 10 µM"}, "[13]": {"target": "T2, Serine/threonine-protein kinase BRSK1 (Homo sapiens) (UniProt Q8TDC3)", "T2 sequence (whole entry)": "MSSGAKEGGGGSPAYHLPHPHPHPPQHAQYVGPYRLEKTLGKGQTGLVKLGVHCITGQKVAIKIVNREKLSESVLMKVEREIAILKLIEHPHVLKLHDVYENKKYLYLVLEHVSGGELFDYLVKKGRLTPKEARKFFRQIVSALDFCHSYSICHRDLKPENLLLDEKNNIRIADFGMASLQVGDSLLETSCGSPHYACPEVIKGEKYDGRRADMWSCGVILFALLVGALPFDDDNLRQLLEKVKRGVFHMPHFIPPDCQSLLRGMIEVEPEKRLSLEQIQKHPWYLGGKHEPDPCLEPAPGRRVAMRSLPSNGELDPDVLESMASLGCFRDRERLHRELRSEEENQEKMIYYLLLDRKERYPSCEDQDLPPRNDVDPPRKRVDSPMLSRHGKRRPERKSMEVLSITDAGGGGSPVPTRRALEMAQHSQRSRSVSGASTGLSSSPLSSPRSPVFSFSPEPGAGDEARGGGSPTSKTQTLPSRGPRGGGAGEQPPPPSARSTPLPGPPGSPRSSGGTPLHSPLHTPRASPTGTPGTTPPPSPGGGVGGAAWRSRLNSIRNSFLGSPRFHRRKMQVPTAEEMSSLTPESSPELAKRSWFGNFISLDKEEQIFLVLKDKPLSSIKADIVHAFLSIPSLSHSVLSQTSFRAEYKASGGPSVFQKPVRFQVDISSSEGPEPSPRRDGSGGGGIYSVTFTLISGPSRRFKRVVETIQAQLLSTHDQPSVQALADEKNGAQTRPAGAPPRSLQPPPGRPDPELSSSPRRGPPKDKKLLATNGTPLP", "experiment": "Selectivity interaction (Kinase panel (Invitrogen)) EUB0000639a BRSK1", "details": "at 200 nM"}, "[14]": {"target": "Serine/threonine-protein kinase 25 (Homo sapiens) (UniProt O00506)", "sequence (O00506 whole entry, looked up)": "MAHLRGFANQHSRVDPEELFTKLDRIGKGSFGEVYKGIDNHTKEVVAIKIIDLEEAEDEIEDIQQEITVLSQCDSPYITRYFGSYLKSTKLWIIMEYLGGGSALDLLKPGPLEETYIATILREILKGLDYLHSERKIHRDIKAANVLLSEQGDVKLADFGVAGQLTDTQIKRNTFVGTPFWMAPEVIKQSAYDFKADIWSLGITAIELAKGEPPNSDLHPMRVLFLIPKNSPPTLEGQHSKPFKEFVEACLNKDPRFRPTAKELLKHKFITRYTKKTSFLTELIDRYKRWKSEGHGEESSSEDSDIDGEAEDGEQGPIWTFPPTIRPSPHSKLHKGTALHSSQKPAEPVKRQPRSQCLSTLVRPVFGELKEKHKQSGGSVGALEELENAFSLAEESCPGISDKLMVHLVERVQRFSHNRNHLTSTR", "experiment": "Selectivity interaction (Kinase panel (Invitrogen)) EUB0000639a STK25", "details": "at 200 nM"}, "[15]": {"target": "Bromodomain testis-specific protein (Homo sapiens) (UniProt Q58F21)", "experiment": "Selectivity interaction (Bromodomain panel (DSF asssay)) EUB0000270b BRDT"}, "[16]": {"target": "Mitogen-activated protein kinase 14 (Homo sapiens, UniProt Q16539)"}, "[17]": {"target": "Phosphatidylinositol 4-kinase beta (Homo sapiens, UniProt Q9UBF8)", "experiment": "Selectivity interaction (KinomeScan (DiscoverX)) EUB0000229b PI4KB", "details": "at 10 µM"}, "[18]": {"target": "Ribosomal protein S6 kinase alpha-1 (Homo sapiens, UniProt Q15418)", "experiment": "Selectivity interaction (KinomeScan (DiscoverX)) EUB0000229b RPS6KA1", "details": "at 10 µM"}, "[19]": {"target": "Kappa-type opioid receptor (Homo sapiens, UniProt P41145)", "sequence (P41145 whole entry)": "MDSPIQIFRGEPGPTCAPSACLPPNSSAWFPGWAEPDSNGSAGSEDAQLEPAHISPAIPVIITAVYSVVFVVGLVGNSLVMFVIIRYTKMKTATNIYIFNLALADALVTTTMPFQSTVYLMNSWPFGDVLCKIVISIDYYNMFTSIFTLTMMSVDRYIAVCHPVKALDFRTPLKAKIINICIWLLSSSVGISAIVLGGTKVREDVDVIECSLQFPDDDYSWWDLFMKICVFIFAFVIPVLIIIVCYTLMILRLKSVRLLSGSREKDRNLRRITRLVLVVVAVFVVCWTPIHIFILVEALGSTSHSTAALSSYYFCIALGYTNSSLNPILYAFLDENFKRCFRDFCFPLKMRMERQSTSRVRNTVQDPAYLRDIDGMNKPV", "experiment": "Selectivity interaction (Panel of kinases, GPCRs, ion channels and transporters (enzymatic assay)) EUB0000223bCl OPRK1"}, "[20]": {"tested_on": "RAF proto-oncogene serine/threonine-protein kinase (Homo sapiens), P04049 [Y340D,Y341D]", "sequence (P04049 whole entry Y340D/Y341D)": "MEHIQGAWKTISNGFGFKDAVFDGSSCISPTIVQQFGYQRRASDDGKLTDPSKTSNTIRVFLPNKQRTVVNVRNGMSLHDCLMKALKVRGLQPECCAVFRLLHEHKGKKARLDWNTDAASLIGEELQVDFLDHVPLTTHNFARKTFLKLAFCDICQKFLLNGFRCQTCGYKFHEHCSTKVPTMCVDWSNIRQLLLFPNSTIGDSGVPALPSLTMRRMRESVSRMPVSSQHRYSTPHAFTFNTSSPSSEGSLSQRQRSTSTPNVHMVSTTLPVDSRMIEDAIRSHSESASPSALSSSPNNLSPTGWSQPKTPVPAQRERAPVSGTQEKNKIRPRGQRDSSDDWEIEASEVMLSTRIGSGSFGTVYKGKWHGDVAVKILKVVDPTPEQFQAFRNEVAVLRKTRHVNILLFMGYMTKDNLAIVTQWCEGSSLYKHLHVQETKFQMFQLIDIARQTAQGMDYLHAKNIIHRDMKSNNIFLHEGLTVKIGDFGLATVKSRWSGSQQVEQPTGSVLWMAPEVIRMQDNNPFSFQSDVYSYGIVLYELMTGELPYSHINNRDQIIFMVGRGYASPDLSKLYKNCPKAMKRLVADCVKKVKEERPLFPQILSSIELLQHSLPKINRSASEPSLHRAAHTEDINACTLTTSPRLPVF", "experiment": "Selectivity interaction (Kinase panel (Z-LYTE Assay)) EUB0001632a RAF1", "details": "at 10 µM"}, "[21]": {"target": "Serine/threonine-protein kinase 32B (Homo sapiens) (UniProt Q9NY57)", "experiment": "Selectivity interaction (KinomeScan (DiscoverX)) EUB0000695a STK32B", "details": "at 100 nM"}},
  "data": [
    {"smiles": "CCN(CC)CCCCNc1ncc2cc(-c3cc(OC)cc(OC)c3)c(NC(=O)NC(C)(C)C)nc2n1", "values": [
      {"measurement": "% of control", "setting": "[1]", "result": 100, "unit": "%"}
    ]},
    {"smiles": "CN(C)C/C=C/C(=O)Nc1ccc(C(=O)N2CCCC(Nc3ncc(Cl)c(-c4c[nH]c5ccccc45)n3)C2)cc1", "note": "(stereo unspecified)", "values": [
      {"measurement": "% of control", "setting": "[2]", "result": 100, "unit": "%"}
    ]},
    {"smiles": "CN(C)CCOc1ccc(-c2nc(-c3ccncc3)c(-c3ccc4c(c3)CC/C4=N\\O)[nH]2)cc1", "values": [
      {"measurement": "% of control", "setting": "[3]", "result": 88, "unit": "%"},
      {"measurement": "% of control", "setting": "[4]", "result": 100, "unit": "%"},
      {"measurement": "% of control", "setting": "[5]", "result": 92, "unit": "%"},
      {"measurement": "% of control", "setting": "[6]", "result": 100, "unit": "%"}
    ]},
    {"smiles": "Nc1cnc(N2CCc3cc(S(=O)(=O)Nc4c(F)cc(Cl)cc4F)cc(N4CCCC4=O)c32)nc1", "note": "[TP-020n]", "values": [
      {"measurement": "% of control", "setting": "[7]", "result": 100, "unit": "%"}
    ]},
    {"smiles": "O[C@H]1CC[C@H](Nc2ncc3nc(Nc4c(F)cc(F)cc4F)n([C@H]4CCOC4)c3n2)CC1", "values": [
      {"measurement": "% of control", "setting": "[8]", "result": 100, "unit": "%"}
    ]},
    {"smiles": "N#Cc1cccc(-c2c[nH]c3ncnc(N4CCOCC4)c23)c1", "values": [
      {"measurement": "% of control", "setting": "[9]", "result": 80, "unit": "%"},
      {"measurement": "% of control", "setting": "[10]", "result": 67, "unit": "%"}
    ]},
    {"smiles": "Cc1ccc(-c2ccc3c(ccc4sc5c(c43)NC[C@@H](C)NC5=O)n2)cn1", "values": [
      {"measurement": "% of inhibition", "setting": "[11]", "result": -19, "unit": "%"}
    ]},
    {"smiles": "Cc1cc([C@@H](C)Nc2ccccc2C(=O)O)c2nc(N3CCOCC3)cc(=O)n2c1", "note": "[AZD-6482]", "values": [
      {"measurement": "% of control", "setting": "[12]", "result": 96, "unit": "%"}
    ]},
    {"smiles": "CC[C@@H]1[C@H](F)C(=O)N[C@@H]1COc1nccc2cc(C(N)=O)c(OC)cc12", "note": "[ZIMLOVISERTIB]", "values": [
      {"measurement": "% of inhibition", "setting": "[13]", "result": 23.6, "unit": "%"},
      {"measurement": "% of inhibition", "setting": "[14]", "result": 7.57, "unit": "%"}
    ]},
    {"smiles": "Cc1cc(CN)cc(C)c1-c1ncn(C)c1-c1cncn1C", "values": [
      {"measurement": "dTM", "setting": "[15]", "result": -1.8, "unit": "K"}
    ]},
    {"smiles": "CCc1cccc(CC)c1NC(=O)c1nn(C)c2c1CCc1cnc(Nc3ccc(C(=O)NC4CCN(C)CC4)cc3OC(F)(F)F)nc1-2", "values": [
      {"measurement": "IC50", "setting": "[16]", "result": "> 10", "unit": "µM"}
    ]},
    {"smiles": "COc1cc(N(C)c2ccnc3ccc(C(F)(F)F)cc23)cc(OC)c1OC", "values": [
      {"measurement": "% binding", "setting": "[17]", "result": 90, "unit": "%"},
      {"measurement": "% binding", "setting": "[18]", "result": 100, "unit": "%"}
    ]},
    {"smiles": "COc1cc(C(=O)N2CC[C@@H](O)[C@@H](N)C2)cc2nc(-c3cc4ccccc4n3CC3CC3)n(C)c12", "values": [
      {"measurement": "pXC50", "setting": "[19]", "result": 4.1, "unit": "M"}
    ]},
    {"smiles": "Cn1cc(-n2cnc3c(NCc4nc5cc(Cl)c(Cl)cc5[nH]4)nc(N4CCOCC4)nc32)cn1", "values": [
      {"measurement": "% of control", "setting": "[20]", "result": -1.53, "unit": "%"}
    ]},
    {"smiles": "Cc1cc(F)c(C(=O)Nc2cccc(-c3nncn3C(C)C)n2)cc1-n1cnc(C2CC2)c1", "values": [
      {"measurement": "% of control", "setting": "[21]", "result": 93, "unit": "%"}
    ]}
  ]
}
